In US12606552B2, “Bifunctional compound, preparation method therefor, and use thereof” (SUZHOU KINTOR PHARMACEUTICALS, INC., priority 2020, dated 2026):

Columns and labels:
[1] = Pharmacokinetic studies of compounds in mice; type: in vivo; conditions: male mice, intragastric administration 10 mg/kg, plasma
Experimental: Activity Assay Example 3: Pharmacokinetic Studies of Compounds in Mice
In this test, 3 male mice were selected and divided into 1 group, 3 mice/group. All animals were fasted overnight before administration.
The intragastric administration dose was 10 mg/kg, and the administration volume was 10 mL/kg.
2.2 Preparation of Drug Solution
According to the animal body weight combined with the administration dose, the amount of the required drug solution was calculated. An appropriate amount of the test substance was weighed, added with 5% of the final volume of ethanol for dissolution, then added with 5% of the final volume of SolutolHS15, and finally added with PBS to the final volume, and mixed by vortex and fully dissolved to obtain a solution for intragastric administration (1 mg/mL). All solutions were prepared for immediate use.
2.3 Method of Administration
Before administration, the drug solution was placed on a magnetic stirrer in the animal laboratory and stirred for at least 10 min. During the administration process, vortex was continued to ensure uniformity of the drug solution. The theoretical volume of gavage administration was 10 mL/kg, which was administered with a syringe equipped with a gavage needle.
Before administration, the animals were weighed and the body weight of the animals involved in the experiment was recorded, and the administration volume of each animal was calculated according to the body weight. After administration, animals were promptly transferred back to the experimental cages to collect samples.
2.4 Observation of Animal Status
After administration, whether animals had abnormal reactions was observed immediately. If there were no abnormal reactions, animals were observed twice a day during the experiment. If abnormal reactions were found, they should be recorded in time, and the number of observations should be increased until the animals returned to normal or to the end of the experiment.
2.5 Sample Collection and Preservation
All experimental animals were fasted overnight before administration, and blood was collected at corresponding time points into blood collection tubes containing heparin sodium anticoagulant. After the whole blood was collected, the blood collection tube was gently shaken and placed on ice immediately, and then centrifuged (4° C., 4000 rpm, 10 min) to collect supernatant plasma samples, which were stored in a refrigerator at −80° C. before analysis.
2.6 Plasma Sample Processing and Analysis
The collected plasma samples were handed over to the Pharmacokinetic department for sample extraction, and the test substances in the plasma were extracted by protein precipitation method using organic reagents containing internal standards (acetonitrile:plasma=4:1, v/v). The extracted processed samples were submitted for quantitative concentration analysis by LC-MS/MS. According to the plasma concentration of each animal obtained by the analysis, software Kinetica (version 5.0) was used to calculate the main pharmacokinetic parameter eAUC30-120 according to the non-compartment model to evaluate the exposure amount; the test results are shown in Table 2: […]

AR = target: T1, AR (Homo sapiens, UniProt P10275, T878A); test: Effects of compounds on AR expression in LNCaP cells (ELISA, DC50); type: cell-based; parameters: Measurement of the Effects of Drugs on the Expression of AR in Cells by ELISA Method; endogenous in cells; host or cells: LNCaP; conditions: 24 hours of drug treatment, AR by ELISA
T1 sequence (P10275 1-920 T878A): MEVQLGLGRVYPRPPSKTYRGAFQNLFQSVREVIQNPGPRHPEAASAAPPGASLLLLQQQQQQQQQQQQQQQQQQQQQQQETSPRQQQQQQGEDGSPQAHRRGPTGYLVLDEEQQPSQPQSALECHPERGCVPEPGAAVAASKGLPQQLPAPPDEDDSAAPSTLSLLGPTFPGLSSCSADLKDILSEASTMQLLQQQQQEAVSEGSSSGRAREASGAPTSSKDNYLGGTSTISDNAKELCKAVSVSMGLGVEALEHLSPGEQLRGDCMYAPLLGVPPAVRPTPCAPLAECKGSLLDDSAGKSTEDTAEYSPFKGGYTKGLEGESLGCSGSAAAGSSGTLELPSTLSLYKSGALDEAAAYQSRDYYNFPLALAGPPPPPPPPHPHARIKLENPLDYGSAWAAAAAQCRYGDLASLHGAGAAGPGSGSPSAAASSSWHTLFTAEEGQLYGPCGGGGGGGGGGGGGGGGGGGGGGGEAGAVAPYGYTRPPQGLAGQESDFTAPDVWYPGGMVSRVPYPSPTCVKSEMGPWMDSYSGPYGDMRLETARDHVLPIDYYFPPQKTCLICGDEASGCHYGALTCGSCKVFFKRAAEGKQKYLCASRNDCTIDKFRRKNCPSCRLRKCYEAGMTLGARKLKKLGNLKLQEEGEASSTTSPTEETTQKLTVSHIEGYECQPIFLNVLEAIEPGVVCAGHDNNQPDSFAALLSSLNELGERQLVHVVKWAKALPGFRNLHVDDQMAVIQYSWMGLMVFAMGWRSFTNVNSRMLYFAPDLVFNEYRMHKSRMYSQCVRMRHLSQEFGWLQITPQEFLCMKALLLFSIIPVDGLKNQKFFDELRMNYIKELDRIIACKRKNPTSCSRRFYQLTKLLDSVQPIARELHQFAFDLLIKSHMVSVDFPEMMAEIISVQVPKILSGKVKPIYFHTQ
Method in brief: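 LNCaP cells at about 15,000/well were treated for 24 h with compound at 0.0001–2 μmol/L final. AR in cell lysates was measured by ELISA (OD450). Inhibition was relative to DMSO control after blank subtraction, and DC50 was calculated from it.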

For Cc1ncsc1-c1ccc(CNC(=O)[C@@H]2C[C@@H](O)CN2C(=O)[C@@H](NC(=O)COCCCCOc2ccc(-c3ccc(N4C(=S)N(c5ccc(C#N)c(C(F)(F)F)c5F)C(=O)C4(C)C)cn3)cc2Cl)C(C)(C)C)cc1 [Compound A83], the “eAUC0.5-2 h” value [1] was 574 ± 176 ng·h/mL and the DC50 (AR) was 87.8 nM.

For Cc1ncsc1-c1ccc(CNC(=O)[C@@H]2C[C@@H](O)CN2C(=O)[C@@H](NC(=O)COCCCCOc2ccc(-c3ccc(N4C(=S)N(c5ccc(C#N)c(C(F)(F)F)c5F)C(=O)C4(C)C)cn3)cc2C(F)(F)F)C(C)(C)C)cc1 [Compound A84], the “eAUC0.5-2 h” value [1] was 774 ± 119 ng·h/mL and the DC50 (AR) was 140 nM.

With Cc1ncsc1-c1ccc(CNC(=O)[C@@H]2C[C@@H](O)CN2C(=O)[C@@H](NC(=O)COCCOCCOc2ccc(-c3ccc(N4C(=S)N(c5ccc(C#N)c(C(F)(F)F)c5F)C(=O)C4(C)C)cn3)cc2F)C(C)(C)C)cc1 [Compound A85] the “eAUC0.5-2 h” value [1] was 70 ± 23 ng·h/mL and the DC50 (AR) was 33 nM.

In the case of Cc1ncsc1-c1ccc(CNC(=O)[C@@H]2C[C@@H](O)CN2C(=O)[C@@H](NC(=O)COCCCCCOc2ccc(-c3ncc(N4C(=S)N(c5ccc(C#N)c(C(F)(F)F)c5F)C(=O)C4(C)C)cc3F)cc2F)C(C)(C)C)cc1 [Compound A89], the “eAUC0.5-2 h” value [1] is reported as 501 ± 103.57 ng·h/mL and the DC50 (AR) is reported as 72 nM.

For Cc1ncsc1-c1ccc(CNC(=O)[C@@H]2C[C@@H](O)CN2C(=O)[C@@H](NC(=O)COCCOCCOc2ccc(-c3ncc(N4C(=S)N(c5ccc(C#N)c(C(F)(F)F)c5F)C(=O)C4(C)C)cc3F)cc2F)C(C)(C)C)cc1 [Compound A90], the “eAUC0.5-2 h” value [1] was 96 ± 28.51 ng·h/mL and the DC50 (AR) was 36.4 nM.

In the case of Cc1ncsc1-c1ccc(CNC(=O)[C@@H]2C[C@@H](O)CN2C(=O)[C@@H](NC(=O)COCCOc2ccc(-c3ncc(N4C(=S)N(c5ccc(C#N)c(C(F)(F)F)c5F)C(=O)C4(C)C)cc3F)cc2F)C(C)(C)C)cc1 [Compound A91], the “eAUC0.5-2 h” value [1] is reported as 3160 ± 2820 ng·h/mL and the DC50 (AR) is reported as 108 nM.

For Cc1ncsc1-c1ccc(CNC(=O)[C@@H]2C[C@@H](O)CN2C(=O)[C@@H](NC(=O)COCCOCCOc2ccc(-c3ncc(N4C(=S)N(c5ccc(C#N)c(C(F)(F)F)c5F)C(=O)C4(C)C)cc3C(F)(F)F)cc2)C(C)(C)C)cc1 [Compound A93], the “eAUC0.5-2 h” value [1] was 275 ± 116 ng·h/mL and the DC50 (AR) was 51.1 nM.

For Cc1ncsc1-c1ccc(CNC(=O)[C@@H]2C[C@@H](O)CN2C(=O)[C@@H](NC(=O)COCCCCOc2ccc(-c3ncc(N4C(=S)N(c5ccc(C#N)c(C(F)(F)F)c5F)C(=O)C4(C)C)cc3F)c(F)c2)C(C)(C)C)cc1 [Compound A94], the “eAUC0.5-2 h” value [1] was 410 ± 38 ng·h/mL and the DC50 (AR) was 58.4 nM.

For Cc1ncsc1-c1ccc(CNC(=O)[C@@H]2C[C@@H](O)CN2C(=O)[C@@H](NC(=O)COCCCCOc2ccc(-c3ncc(N4C(=S)N(c5ccc(C#N)c(C(F)(F)F)c5F)C(=O)C4(C)C)cc3C(F)(F)F)c(F)c2)C(C)(C)C)cc1 [Compound A95], the “eAUC0.5-2 h” value [1] was 1234 ± 430 ng·h/mL and the DC50 (AR) was 106 nM.

With Cc1ncsc1-c1ccc(CNC(=O)[C@@H]2C[C@@H](O)CN2C(=O)[C@@H](NC(=O)COCCCCCOc2c(F)cc(-c3ncc(N4C(=S)N(c5ccc(C#N)c(C(F)(F)F)c5F)C(=O)C4(C)C)cc3F)cc2F)C(C)(C)C)cc1 [Compound A97] the “eAUC0.5-2 h” value [1] was 1690 ± 158 ng·h/mL and the DC50 (AR) was 98.4 nM.

For Cc1ncsc1-c1ccc(CNC(=O)[C@@H]2C[C@@H](O)CN2C(=O)[C@@H](NC(=O)COCCOCCOc2c(F)cc(-c3ncc(N4C(=S)N(c5ccc(C#N)c(C(F)(F)F)c5F)C(=O)C4(C)C)cc3F)cc2F)C(C)(C)C)cc1 [Compound A99], the “eAUC0.5-2 h” value [1] was 308 ± 288 ng·h/mL and the DC50 (AR) was 23.2 nM.

With Cc1ncsc1-c1ccc(CNC(=O)[C@@H]2C[C@@H](O)CN2C(=O)[C@@H](NC(=O)COCCCCOc2ccc(-c3ccc(N4C(=S)N(c5ccc(C#N)c(C(F)(F)F)c5F)C(=O)C4(C)C)cn3)cn2)C(C)(C)C)cc1 [Compound A100] the “eAUC0.5-2 h” value [1] was 720 ± 206 ng·h/mL and the DC50 (AR) was 18.9 nM.

For Cc1ncsc1-c1ccc(CNC(=O)[C@@H]2C[C@@H](O)CN2C(=O)[C@@H](NC(=O)COCCCCOc2ccc(-c3ncc(N4C(=S)N(c5ccc(C#N)c(C(F)(F)F)c5F)C(=O)C4(C)C)cc3C(F)(F)F)c(C(F)(F)F)c2)C(C)(C)C)cc1 [Compound A101], the “eAUC0.5-2 h” value [1] was 508 ± 171 ng·h/mL and the DC50 (AR) was 115 nM.

With Cc1ncsc1-c1ccc(CNC(=O)[C@@H]2C[C@@H](O)CN2C(=O)[C@@H](NC(=O)COCCCCOc2c(F)cc(-c3ccc(N4C(=S)N(c5ccc(C#N)c(C(F)(F)F)c5F)C(=O)C4(C)C)cn3)cc2F)C(C)(C)C)cc1 [Compound A103] the “eAUC0.5-2 h” value [1] was 984 ± 617 ng·h/mL and the DC50 (AR) was 152 nM.

With Cc1ncsc1-c1ccc(CNC(=O)[C@@H]2C[C@@H](O)CN2C(=O)[C@@H](NC(=O)[C@H]2CC[C@H](CNC(=O)c3ccc(-c4ccc(N5C(=S)N(c6ccc(C#N)c(C(F)(F)F)c6F)C(=O)C5(C)C)cn4)cc3F)CC2)C(C)(C)C)cc1 [Compound A105] the “eAUC0.5-2 h” value [1] was 379 ± 300 ng·h/mL and the DC50 (AR) was 188 nM.

With Cc1ncsc1-c1ccc([C@H](C)NC(=O)[C@@H]2C[C@@H](O)CN2C(=O)[C@@H](NC(=O)COCCCCOc2ccc(-c3ncc(N4C(=S)N(c5ccc(C#N)c(C(F)(F)F)c5F)C(=O)C4(C)C)cc3C(F)(F)F)cc2F)C(C)(C)C)cc1 [Compound A108] the “eAUC0.5-2 h” value [1] was 993 ± 201 ng·h/mL and the DC50 (AR) was 136 nM.

For Cc1ncsc1-c1ccc([C@H](C)NC(=O)[C@@H]2C[C@@H](O)CN2C(=O)[C@@H](NC(=O)COCCCCOc2ccc(-c3ncc(N4C(=S)N(c5ccc(C#N)c(C(F)(F)F)c5F)C(=O)C4(C)C)cc3F)c(C(F)(F)F)c2)C(C)(C)C)cc1 [Compound A109], the “eAUC0.5-2 h” value [1] was 557 ± 108 ng·h/mL and the DC50 (AR) was 71.4 nM.

In the case of Cc1ncsc1-c1ccc([C@H](C)NC(=O)[C@@H]2C[C@@H](O)CN2C(=O)[C@@H](NC(=O)COCCCCOc2ccc(-c3ncc(N4C(=S)N(c5ccc(C#N)c(C(F)(F)F)c5F)C(=O)C4(C)C)cc3F)cc2F)C(C)(C)C)cc1 [Compound A110], the “eAUC0.5-2 h” value [1] is reported as 1098 ± 208 ng·h/mL and the DC50 (AR) is reported as 56.4 nM.

With Cc1ncsc1-c1ccc(CNC(=O)[C@@H]2C[C@@H](O)CN2C(=O)[C@@H](NC(=O)COCCCCOc2ccc(-c3ncc(N4C(=S)N(c5ccc(C#N)c(C(F)(F)F)c5F)C(=O)C4(C)C)cn3)cc2F)C(C)(C)C)cc1 [Compound A111] the “eAUC0.5-2 h” value [1] was 297 ± 78 ng·h/mL and the DC50 (AR) was 46.2 nM.

With Cc1ncsc1-c1ccc([C@H](C)NC(=O)[C@@H]2C[C@@H](O)CN2C(=O)[C@@H](NC(=O)COCCCCCOc2ccc(-c3ncc(N4C(=S)N(c5ccc(C#N)c(C(F)(F)F)c5F)C(=O)C4(C)C)cc3F)cc2F)C(C)(C)C)cc1 [Compound A112] the “eAUC0.5-2 h” value [1] was 383 ± 165 ng·h/mL and the DC50 (AR) was 153 nM.
